Assay results taken from paper PMC6486817 (The Journal of organic chemistry, 2018).

Target: butyrylcholinesterase (BuChE)
Experiment: modified Ellman photometric anti-cholinesterase assay
Assay type: biochemical

Q: For `CCC[C@H](O)CCCCCC[C@H]1CCC[C@@H]2N[C@H](C)[C@H](OC(=O)/C=C/SC)C[C@H]12` [compound 1, lepadin I], which IC50 is on record?
A: Its IC50 is 3.1 µM.
